According to patent US20250154115A1, “ARYLBENZOISOXAZOLE COMPOUNDS AS IP6K AND IPMK INHIBITORS AND METHODS OF USE THEREOF” (THE UNIVERSITY OF NORTH CAROLINA AT CHAPEL HILL, priority 2022, published 2025):

Tests used:
Format in all cases: biochemical
IP6K1 = IP6K1 (Homo sapiens (Human), UniProt Q92551); assay: Enzyme-coupled assay of IP6K1 activity (Dipp1-coupled, malachite green Pi release)
Description: (§1) […] The cells were disrupted using a constant cell disruption system (Constant Systems) under 20 kPsi.
(§2) Pi release was determined with a malachite green colorimetric assay.^45 Where indicated, TNP (Cayman Chemical) was added to the assays (FIG. 2A-E).

IP6K2 = IP6K2 (Homo sapiens (Human), UniProt Q9UHH9); assay: Enzyme-coupled assay of IP6K2 activity (Dipp1-coupled, malachite green Pi release)
Chain of IP6K2 (Q9UHH9 whole entry): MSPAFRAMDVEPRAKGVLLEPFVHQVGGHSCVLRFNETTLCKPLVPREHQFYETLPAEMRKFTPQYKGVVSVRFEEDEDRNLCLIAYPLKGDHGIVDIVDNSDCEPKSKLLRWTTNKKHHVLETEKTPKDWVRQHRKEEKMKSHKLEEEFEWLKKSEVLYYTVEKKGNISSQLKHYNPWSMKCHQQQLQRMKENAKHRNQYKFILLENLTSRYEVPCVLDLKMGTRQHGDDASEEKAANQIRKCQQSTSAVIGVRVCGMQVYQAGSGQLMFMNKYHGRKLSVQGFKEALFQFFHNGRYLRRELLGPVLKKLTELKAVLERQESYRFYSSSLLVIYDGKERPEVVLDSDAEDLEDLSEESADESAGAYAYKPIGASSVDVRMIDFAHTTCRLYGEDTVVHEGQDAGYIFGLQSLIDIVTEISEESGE
Description: as §1, §2

IPMK = IPMK (Homo sapiens (Human), UniProt Q8NFU5); assay: Enzyme-coupled assay, IPMK IC50
Chain of IPMK (Q8NFU5 whole entry, species assumed): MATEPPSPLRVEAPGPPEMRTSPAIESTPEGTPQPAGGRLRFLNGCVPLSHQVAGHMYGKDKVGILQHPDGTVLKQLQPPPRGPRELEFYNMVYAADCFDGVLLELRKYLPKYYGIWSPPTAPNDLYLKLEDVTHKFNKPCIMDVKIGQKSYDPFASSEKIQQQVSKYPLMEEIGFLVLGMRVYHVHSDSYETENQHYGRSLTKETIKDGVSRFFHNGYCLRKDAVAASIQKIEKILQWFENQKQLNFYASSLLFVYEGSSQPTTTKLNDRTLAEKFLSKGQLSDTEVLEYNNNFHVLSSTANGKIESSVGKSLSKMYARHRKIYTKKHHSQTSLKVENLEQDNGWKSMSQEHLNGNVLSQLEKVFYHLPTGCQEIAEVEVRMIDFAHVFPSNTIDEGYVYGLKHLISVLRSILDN

[1] = determined from enzyme-coupled assays

Chain of IP6K1 (Q92551 whole entry): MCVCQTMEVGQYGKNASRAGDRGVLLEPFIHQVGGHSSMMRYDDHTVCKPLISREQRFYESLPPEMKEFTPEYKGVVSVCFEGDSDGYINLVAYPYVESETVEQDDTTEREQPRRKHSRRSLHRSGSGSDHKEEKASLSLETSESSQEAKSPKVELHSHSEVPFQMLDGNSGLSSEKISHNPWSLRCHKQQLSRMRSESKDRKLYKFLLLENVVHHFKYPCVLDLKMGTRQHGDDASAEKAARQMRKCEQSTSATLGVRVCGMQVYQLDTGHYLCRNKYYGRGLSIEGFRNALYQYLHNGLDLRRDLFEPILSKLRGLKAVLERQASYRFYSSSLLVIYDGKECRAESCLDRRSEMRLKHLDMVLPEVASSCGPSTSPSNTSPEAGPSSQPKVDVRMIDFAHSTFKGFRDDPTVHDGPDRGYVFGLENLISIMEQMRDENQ

c1cc2noc(-c3ccc(C4CCNCC4)cc3)c2cc1-c1nnn[nH]1 [Compound 117]
IC50 (IP6K1; enzyme-coupled assay, Table 4): 100 to 1000 nM

Nc1cccc(-c2cccc(-c3onc4ccc(-c5nnn[nH]5)cc34)c2)c1 [Compound 97]
IC50 (IP6K1; enzyme-coupled assay, Table 4): 10 to 100 nM | IC50 (IP6K2; enzyme-coupled assay, Table 4): 10 to 100 nM

CNC(=O)c1ccc2noc(-c3ccccc3)c2c1 [Compound 21]
IPMK IC50 (IPMK; enzyme-coupled assay, Table 2): −

Clc1ccc(-c2cccc(-c3onc4ccc(-c5nnn[nH]5)cc34)c2)c(Cl)c1 [Compound 84]
IC50 (IP6K1; enzyme-coupled assay, Table 4): 10 to 100 nM | IC50 (IP6K2; enzyme-coupled assay, Table 4): 10 to 100 nM | IC50 (IPMK; enzyme-coupled assay, Table 4): 10 to 100 nM

CC(C)N1CCC(Oc2cccc(-c3onc4ccc(-c5nnn[nH]5)cc34)c2)CC1 [Compound 87]
IC50 (IP6K1; enzyme-coupled assay, Table 4): 10 to 100 nM | IC50 (IP6K2; enzyme-coupled assay, Table 4): 10 to 100 nM | IC50 (IPMK; enzyme-coupled assay, Table 4): 10 to 100 nM

O=c1[nH]c(-c2ccc3noc(-c4cccc(OC5CCN(CCO)CC5)c4)c3c2)no1 [Cmpd 135]
IC50 (IP6K1; [1]): 100 to 1000 nM | IC50 (IP6K2; [1]): 100 to 1000 nM | IC50 (IPMK; [1]): 10 to 100 nM

CC(C)C(=O)N1CCC(Oc2cccc(-c3onc4ccc(-c5nnn[nH]5)cc34)c2)CC1 [Compound 90]
IC50 (IP6K1; enzyme-coupled assay, Table 4): 10 to 100 nM | IC50 (IP6K2; enzyme-coupled assay, Table 4): 10 to 100 nM | IC50 (IPMK; enzyme-coupled assay, Table 4): < 10 nM

O=C(O)c1ccc2noc(-c3cccc(-c4cccc(Cl)c4)c3)c2c1 [Compound 51]
IC50 (IP6K1; enzyme-coupled assay, Table 2): 100 to 1000 nM | IC50 (IP6K2; enzyme-coupled assay, Table 2): 100 to 1000 nM | IC50 (IPMK; enzyme-coupled assay, Table 2): 10 to 100 nM

c1cc(OC2CNC2)cc(-c2onc3ccc(-c4nnn[nH]4)cc23)c1 [Compound 92]
IC50 (IP6K1; enzyme-coupled assay, Table 4): 10 to 100 nM | IC50 (IP6K2; enzyme-coupled assay, Table 4): 10 to 100 nM

CC(=O)N1CCC(Oc2cccc(-c3onc4ccc(-c5nnn[nH]5)cc34)c2)CC1 [Compound 85, 1-(4-(3-(5-(1H-tetrazol-5-yl)benzo[c]isoxazol-3-yl)phenoxy)piperidin-1-yl)ethan-1-one]
IC50 (IP6K1; enzyme-coupled assay, Table 4): < 10 nM | IC50 (IP6K2; enzyme-coupled assay, Table 4): 10 to 100 nM | IC50 (IPMK; enzyme-coupled assay, Table 4): 10 to 100 nM

c1cc(OC2CCN(CC3CC3)CC2)cc(-c2onc3ccc(-c4nnn[nH]4)cc23)c1 [Compound 88, 3-(3-((1-(cyclopropylmethyl)piperidin-4-yl)oxy)phenyl)-5-(1H-tetrazol-5-yl)benzo[c]isoxazole]
IC50 (IP6K1; enzyme-coupled assay, Table 4): 10 to 100 nM | IC50 (IP6K2; enzyme-coupled assay, Table 4): 100 to 1000 nM | IC50 (IPMK; enzyme-coupled assay, Table 4): 10 to 100 nM

O=C(C1CC1)N1CCC(Oc2cccc(-c3onc4ccc(-c5nnn[nH]5)cc34)c2)CC1 [Compound 89]
IC50 (IP6K1; enzyme-coupled assay, Table 4): 10 to 100 nM | IC50 (IP6K2; enzyme-coupled assay, Table 4): 10 to 100 nM | IC50 (IPMK; enzyme-coupled assay, Table 4): < 10 nM

CC(C)C(=O)N1CCC(c2ccc(-c3onc4ccc(-c5nnn[nH]5)cc34)cc2)CC1 [Compound 120]
IC50 (IP6K1; enzyme-coupled assay, Table 4): 100 to 1000 nM

O=C(O)c1ccc2noc(-c3ccc(OC(F)(F)F)cc3)c2c1 [Compound 23]
IC50 (IP6K1; enzyme-coupled assay, Table 2): 1000 to 100000 nM | IC50 (IP6K2; enzyme-coupled assay, Table 2): 100 to 1000 nM

CN1CCC(Oc2cccc(-c3onc4ccc(-c5nnn[nH]5)cc34)c2)CC1 [Compound 86]
IC50 (IP6K1; enzyme-coupled assay, Table 4): 10 to 100 nM | IC50 (IP6K2; enzyme-coupled assay, Table 4): 10 to 100 nM | IC50 (IPMK; enzyme-coupled assay, Table 4): 10 to 100 nM

Nc1cccc(-c2ccc(-c3onc4ccc(-c5nnn[nH]5)cc34)cc2)c1 [Compound 95]
IC50 (IP6K1; enzyme-coupled assay, Table 4): 10 to 100 nM | IC50 (IP6K2; enzyme-coupled assay, Table 4): 10 to 100 nM

O=C(N1CCC(c2ccc(-c3onc4ccc(-c5nnn[nH]5)cc34)cc2)CC1)C1(F)CC1 [Compound 123]
IC50 (IP6K1; enzyme-coupled assay, Table 4): 100 to 1000 nM

O=C(C1CCCC1)N1CCC(Oc2cccc(-c3onc4ccc(-c5nnn[nH]5)cc34)c2)CC1 [Compound 94]
IC50 (IP6K1; enzyme-coupled assay, Table 4): 10 to 100 nM | IC50 (IP6K2; enzyme-coupled assay, Table 4): 10 to 100 nM

O=C1CC(C(=O)N2CCC(c3cccc(-c4onc5ccc(-c6nnn[nH]6)cc45)c3)CC2)C1 [Compound 110]
IC50 (IP6K1; enzyme-coupled assay, Table 4): 10 to 100 nM

c1cc(-c2onc3ccc(-c4nnn[nH]4)cc23)cc(C2CCN(CC3CC3)CC2)c1 [Compound 107]
IC50 (IP6K1; enzyme-coupled assay, Table 4): 10 to 100 nM

CC(C)(C)OC(=O)Nc1cccc(-c2cccc(-c3onc4ccc(-c5nnn[nH]5)cc34)c2)c1 [Compound 96]
IC50 (IP6K1; enzyme-coupled assay, Table 4): 10 to 100 nM | IC50 (IP6K2; enzyme-coupled assay, Table 4): 10 to 100 nM

O=C(C1CC1)N1CCC(Oc2cccc(-c3onc4ccc(-c5noc(=O)[nH]5)cc34)c2)CC1 [Cmpd 138]
IC50 (IP6K1; [1]): 100 to 1000 nM | IC50 (IP6K2; [1]): 10 to 100 nM | IC50 (IPMK; [1]): 10 to 100 nM

CC1(C(=O)N2CCC(c3ccc(-c4onc5ccc(-c6nnn[nH]6)cc45)cc3)CC2)COC1 [Compound 121]
IC50 (IP6K1; enzyme-coupled assay, Table 4): 100 to 1000 nM

CN1CCC(NC(=O)c2ccc(-c3onc4ccc(C(=O)O)cc34)cc2)CC1 [Compound 40]
IC50 (IP6K1; enzyme-coupled assay, Table 2): 1000 to 100000 nM | IC50 (IP6K2; enzyme-coupled assay, Table 2): 1000 to 100000 nM | IPMK IC50 (IPMK; enzyme-coupled assay, Table 2): −

O=c1[nH]c(-c2ccc3noc(-c4cccc(OC5CCNCC5)c4)c3c2)no1 [Cmpd 129]
IC50 (IP6K1; [1]): 10 to 100 nM | IC50 (IP6K2; [1]): 10 to 100 nM | IC50 (IPMK; [1]): < 10 nM

O=C(C1CC1)N1CCC(c2cccc(-c3onc4ccc(-c5nnn[nH]5)cc34)c2)CC1 [Compound 111]
IC50 (IP6K1; enzyme-coupled assay, Table 4): 10 to 100 nM

O=c1[nH]c(-c2ccc3noc(-c4cccc(OC5CCN(C6COC6)CC5)c4)c3c2)no1 [Cmpd 134]
IC50 (IP6K1; [1]): 100 to 1000 nM | IC50 (IP6K2; [1]): 100 to 1000 nM | IC50 (IPMK; [1]): 100 to 1000 nM

CC(C)C(=O)N1CCC(c2cccc(-c3onc4ccc(-c5nnn[nH]5)cc34)c2)CC1 [Compound 109]
IC50 (IP6K1; enzyme-coupled assay, Table 4): 10 to 100 nM

CC(C)(C)OC(=O)N1CCC(Oc2cccc(-c3onc4ccc(-c5noc(=O)[nH]5)cc34)c2)CC1 [Cmpd 128]
IC50 (IP6K1; [1]): 10 to 100 nM | IC50 (IP6K2; [1]): 10 to 100 nM | IC50 (IPMK; [1]): 10 to 100 nM

c1cc(-c2onc3ccc(-c4nnn[nH]4)cc23)cc(C2CCNCC2)c1 [Compound 104]
IC50 (IP6K1; enzyme-coupled assay, Table 4): 100 to 1000 nM

O=C(O)c1ccc2noc(-c3ccc(C(=O)NCCN4CCOCC4)cc3)c2c1 [Compound 41]
IP6K1 IC50 (IP6K1; enzyme-coupled assay, Table 2): − | IP6K2 IC50 (IP6K2; enzyme-coupled assay, Table 2): − | IPMK IC50 (IPMK; enzyme-coupled assay, Table 2): −
